For three compounds, IC50 results are on record in article PMC3723849, “Evaluation of Phage Display Discovered Peptides as Ligands for Prostate-Specific Membrane Antigen (PSMA)” (PLoS ONE, 2013).

Residues, ends and D or L forms follow the SMILES beside them. *: point of attachment. Acm = CC(=O)NC*

Assay [1] concerns the target T1, PSMA-His6 (Homo sapiens, UniProt Q04609). Briefly: PSMA enzyme assay (NAAG hydrolysis, Amplex Red glutamate detection). The class given is biochemical. Set-up: A 15-mer library was screened against the soluble ectodomain of PSMA; purchased R&D Systems. The procedure:
The glutamic acid/glutamate released from the natural substrate of PSMA, NAAG (N-acetylaspartylglutamate), was analyzed by the fluorescence-based Amplex Red Glutamic Acid/Glutamate Oxidase assay kit (Invitrogen) as previously described, [22], [32], [33]. […] Then NAAG (4 µM, 10 µL) was added to the peptide/PSMA-His6 mixture (37°C, 30 min). The enzymatic reaction was quenched (500 mM NaH2PO4/Na2HPO4, pH 7.4, 10 µL). […] Data was analyzed by non-linear regression with GraphPad Prism.

Assay [2] has as its target T1, PSMA-His6. Briefly: AlphaScreen competition binding assay.
Description: The AlphaScreen competition binding assay was performed based on published procedures [29], [30], [31]. […] The mixture was incubated (ambient temperature, 1 h), and then nickel chelate acceptor beads (5 µL, 120 µg/mL) were added followed by a second incubation (dark, ambient temperature, 1 h). Streptavidin donor beads (5 µL, 120 µg/mL) were added for a final incubation (dark, ambient temperature, 30 m). […] Data was analyzed by non-linear regression with GraphPad Prism.
Only when the peptide binds to PSMA (thus bringing the two beads close to each other), can the AlphaScreen (emission) signal be generated, in which case, the singlet oxygen generated by the excitation at 680 nm on the donor bead can transfer energy to the adjacent acceptor bead and subsequently produce an emission signal at 520–620 nm.
The mark [3] stands for this setting: NAAG substrate, PSMA-His6, 37°C, read-out: Enzyme inhibition (footnote symbols: no inhibition observed at the stated concentration).
[4] abbreviates: highest concentration tested without inhibition, limited by solubility of the peptide, read-out: PSMA enzymatic reaction: no inhibition at the stated concentration.

T1 sequence (Q04609 44-750 limits assumed): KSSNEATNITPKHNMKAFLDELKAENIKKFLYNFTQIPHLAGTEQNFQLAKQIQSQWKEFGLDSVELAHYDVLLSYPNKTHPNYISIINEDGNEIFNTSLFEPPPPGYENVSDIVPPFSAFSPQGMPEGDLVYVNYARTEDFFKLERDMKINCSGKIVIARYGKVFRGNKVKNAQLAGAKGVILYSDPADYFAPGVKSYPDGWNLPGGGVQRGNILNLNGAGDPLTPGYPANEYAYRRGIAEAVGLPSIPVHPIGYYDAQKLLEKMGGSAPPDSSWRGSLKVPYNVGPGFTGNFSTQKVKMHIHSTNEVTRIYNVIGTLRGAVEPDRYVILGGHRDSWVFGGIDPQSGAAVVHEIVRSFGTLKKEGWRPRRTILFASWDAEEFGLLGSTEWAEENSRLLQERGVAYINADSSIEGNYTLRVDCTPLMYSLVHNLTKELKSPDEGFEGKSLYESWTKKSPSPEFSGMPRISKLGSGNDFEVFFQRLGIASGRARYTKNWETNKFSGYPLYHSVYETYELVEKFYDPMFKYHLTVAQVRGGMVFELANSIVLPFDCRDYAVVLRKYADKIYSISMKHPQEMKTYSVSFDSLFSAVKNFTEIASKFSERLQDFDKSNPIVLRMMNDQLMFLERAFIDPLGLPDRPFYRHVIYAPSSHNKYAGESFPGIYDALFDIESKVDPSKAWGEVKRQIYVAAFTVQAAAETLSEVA

As to `CC(C)[C@H](NC(=O)[C@H](CO)NC(=O)[C@H](Cc1ccccc1)NC(=O)[C@H](CO)NC(=O)[C@H](Cc1c[nH]cn1)NC(=O)[C@@H](N)CO)C(=O)NCC(=O)N[C@@H](CO)C(=O)NCC(=O)N[C@@H](CC(=O)O)C(=O)N[C@@H](Cc1c[nH]cn1)C(=O)N[C@@H](CO)C(=O)N1CCC[C@H]1C(=O)N[C@@H](Cc1ccccc1)C(=O)N[C@H](C(=O)NCC(=O)NCC(=O)NCC(=O)N[C@@H](CO)C(=O)NCCOCCOCCOCCOCCOCCOCCC(=O)N[C@@H](CSC1CC(=O)N(CCC(=O)NCCCC[C@H](NC(=O)CCN2C(=O)CC(SC[C@H](NC(=O)CCOCCOCCOCCOCCOCCOCCNC(=O)[C@H](CO)NC(=O)CNC(=O)CNC(=O)CNC(=O)[C@@H](NC(=O)[C@H](Cc3ccccc3)NC(=O)[C@@H]3CCCN3C(=O)[C@H](CO)NC(=O)[C@H](Cc3c[nH]cn3)NC(=O)[C@H](CC(=O)O)NC(=O)CNC(=O)[C@H](CO)NC(=O)CNC(=O)[C@@H](NC(=O)[C@H](CO)NC(=O)[C@H](Cc3ccccc3)NC(=O)[C@H](CO)NC(=O)[C@H](Cc3c[nH]cn3)NC(=O)[C@@H](N)CO)C(C)C)[C@@H](C)O)C(N)=O)C2=O)C(=O)NCCCC[C@H](NC(=O)[C@H](CCCCNC(=O)CCN2C(=O)CC(SC[C@H](NC(=O)CCOCCOCCOCCOCCOCCOCCNC(=O)[C@H](CO)NC(=O)CNC(=O)CNC(=O)CNC(=O)[C@@H](NC(=O)[C@H](Cc3ccccc3)NC(=O)[C@@H]3CCCN3C(=O)[C@H](CO)NC(=O)[C@H](Cc3c[nH]cn3)NC(=O)[C@H](CC(=O)O)NC(=O)CNC(=O)[C@H](CO)NC(=O)CNC(=O)[C@@H](NC(=O)[C@H](CO)NC(=O)[C@H](Cc3ccccc3)NC(=O)[C@H](CO)NC(=O)[C@H](Cc3c[nH]cn3)NC(=O)[C@@H](N)CO)C(C)C)[C@@H](C)O)C(N)=O)C2=O)NC(=O)CCN2C(=O)CC(SC[C@H](NC(=O)CCOCCOCCOCCOCCOCCOCCNC(=O)[C@H](CO)NC(=O)CNC(=O)CNC(=O)CNC(=O)[C@@H](NC(=O)[C@H](Cc3ccccc3)NC(=O)[C@@H]3CCCN3C(=O)[C@H](CO)NC(=O)[C@H](Cc3c[nH]cn3)NC(=O)[C@H](CC(=O)O)NC(=O)CNC(=O)[C@H](CO)NC(=O)CNC(=O)[C@@H](NC(=O)[C@H](CO)NC(=O)[C@H](Cc3ccccc3)NC(=O)[C@H](CO)NC(=O)[C@H](Cc3c[nH]cn3)NC(=O)[C@@H](N)CO)C(C)C)[C@@H](C)O)C(N)=O)C2=O)C(=O)NCCC(=O)O)C1=O)C(N)=O)[C@@H](C)O` (stereo partly drawn) [(562)4], the IC50 in assay [1] (against 1 µM NAAG, peptide pre-incubated with PSMA-His6 37°C 30 min, reaction 37°C 30 min, TBS, fluorescence Ex 530/Em 590, read-out: Enzyme inhibition IC50) turned out to be 311 µM.
Turning to `CC(=O)NCSC[C@H](NC(=O)[C@H](CO)NC(=O)[C@H](Cc1ccccc1)NC(=O)[C@H](Cc1ccccc1)NC(=O)[C@H](CO)NC(=O)[C@@H](N)CC(C)C)C(=O)N[C@@H](Cc1c[nH]c2ccccc12)C(=O)N[C@@H](CC(C)C)C(=O)N[C@@H](CCCNC(=N)N)C(=O)N[C@@H](CCCNC(=N)N)C(=O)N[C@@H](CO)C(=O)N[C@@H](Cc1ccccc1)C(=O)N[C@@H](CO)C(=O)N[C@@H](CC(C)C)C(=O)N[C@H](C(N)=O)[C@@H](C)O` [Peptide 564] (H-LSFFSC(Acm)WLRRSFSLT-NH2), the IC50 in assay [1] (setting [3]) and in assay [1] (setting [4]) was more than 55.5 µM in each case.
As for `CC[C@H](C)[C@H](NC(=O)[C@H](CSCNC(C)=O)NC(=O)[C@H](CCCNC(=N)N)NC(=O)[C@H](CCSC)NC(=O)[C@H](CC(C)C)NC(=O)[C@H](Cc1ccccc1)NC(=O)[C@H](CC(C)C)NC(=O)[C@H](CC(C)C)NC(=O)[C@H](Cc1ccccc1)NC(=O)[C@H](CCSC)NC(=O)[C@H](CCCNC(=N)N)NC(=O)[C@H](C)N)C(=O)NCC(=O)N[C@@H](CSCNC(C)=O)C(=O)N[C@@H](Cc1ccc(O)cc1)C(N)=O` [Peptide 565] (H-ARMFLLFLMRC(Acm)IGC(Acm)Y-NH2; N-terminus assumed), the IC50 in assay [2] is more than 4.83 µM; in assay [1] (setting [3]), more than 14.5 µM; in assay [1] (setting [4]) it was more than 14.5 µM.
